Assays:
[1] = target: Integrin alpha-V/beta-3 (Homo sapiens, UniProt P05106+P06756); assay: Inhibition of Vitronectin receptor (alpha V beta 3) binding to vitronectin
[2] = target: Integrin alpha-IIb/beta-3 (Homo sapiens, UniProt P05106+P08514); assay: Inhibition of alpha IIb beta-3 integrin binding to fibrinogen; format: protein-complex assay
Integrin alpha-IIb/beta-3, sequence (P05106 27-788 limits assumed): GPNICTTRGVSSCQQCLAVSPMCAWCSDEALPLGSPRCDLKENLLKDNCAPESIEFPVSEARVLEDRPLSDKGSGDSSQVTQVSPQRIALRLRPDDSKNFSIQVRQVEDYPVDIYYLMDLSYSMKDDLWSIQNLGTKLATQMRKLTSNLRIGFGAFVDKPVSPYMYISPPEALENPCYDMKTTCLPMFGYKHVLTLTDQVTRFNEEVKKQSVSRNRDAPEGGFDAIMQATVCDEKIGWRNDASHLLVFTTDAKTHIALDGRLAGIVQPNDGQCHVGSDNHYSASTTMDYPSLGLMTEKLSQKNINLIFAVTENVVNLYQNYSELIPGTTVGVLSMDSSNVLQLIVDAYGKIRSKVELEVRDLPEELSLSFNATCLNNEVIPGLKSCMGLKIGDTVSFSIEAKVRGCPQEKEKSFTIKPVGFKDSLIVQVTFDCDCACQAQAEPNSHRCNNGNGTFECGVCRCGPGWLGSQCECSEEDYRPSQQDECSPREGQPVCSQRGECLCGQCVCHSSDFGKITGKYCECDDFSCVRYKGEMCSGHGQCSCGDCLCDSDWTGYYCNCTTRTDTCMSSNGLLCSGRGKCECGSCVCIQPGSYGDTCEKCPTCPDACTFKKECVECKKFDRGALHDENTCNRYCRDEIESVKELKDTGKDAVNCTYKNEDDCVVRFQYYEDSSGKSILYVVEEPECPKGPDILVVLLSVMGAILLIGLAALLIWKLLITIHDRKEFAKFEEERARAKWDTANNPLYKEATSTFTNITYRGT
Integrin alpha-IIb/beta-3, sequence (P08514 32-887 limits assumed): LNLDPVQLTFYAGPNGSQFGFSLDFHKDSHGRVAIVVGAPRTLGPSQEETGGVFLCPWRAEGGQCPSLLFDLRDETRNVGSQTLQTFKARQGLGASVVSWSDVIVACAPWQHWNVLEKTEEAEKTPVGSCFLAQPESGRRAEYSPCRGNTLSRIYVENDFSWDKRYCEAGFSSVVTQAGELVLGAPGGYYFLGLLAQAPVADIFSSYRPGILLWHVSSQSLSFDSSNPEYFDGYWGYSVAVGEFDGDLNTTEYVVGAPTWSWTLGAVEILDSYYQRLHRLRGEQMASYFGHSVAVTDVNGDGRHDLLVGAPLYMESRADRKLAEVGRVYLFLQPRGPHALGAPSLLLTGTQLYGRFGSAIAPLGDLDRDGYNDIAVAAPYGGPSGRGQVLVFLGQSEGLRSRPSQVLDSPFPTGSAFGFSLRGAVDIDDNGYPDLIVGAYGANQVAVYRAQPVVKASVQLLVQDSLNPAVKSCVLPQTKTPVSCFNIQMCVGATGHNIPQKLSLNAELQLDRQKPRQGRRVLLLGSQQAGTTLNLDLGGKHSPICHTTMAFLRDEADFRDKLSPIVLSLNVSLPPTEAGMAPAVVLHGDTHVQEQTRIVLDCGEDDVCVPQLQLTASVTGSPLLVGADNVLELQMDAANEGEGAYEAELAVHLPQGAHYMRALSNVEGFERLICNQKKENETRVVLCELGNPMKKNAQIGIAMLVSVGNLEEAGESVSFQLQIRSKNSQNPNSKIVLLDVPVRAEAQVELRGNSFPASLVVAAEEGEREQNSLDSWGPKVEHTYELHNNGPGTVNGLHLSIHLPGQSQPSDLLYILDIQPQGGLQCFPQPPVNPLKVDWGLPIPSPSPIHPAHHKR
Integrin alpha-IIb/beta-3, sequence (P08514 891-1039 limits assumed): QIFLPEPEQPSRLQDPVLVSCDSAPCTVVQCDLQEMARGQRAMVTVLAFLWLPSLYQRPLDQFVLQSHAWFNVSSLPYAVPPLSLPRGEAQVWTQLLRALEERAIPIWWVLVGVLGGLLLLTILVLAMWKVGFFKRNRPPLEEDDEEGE

Integrin alpha-V/beta-3, sequence (P05106 27-788 limits assumed): as the sequence (P05106 27-788 limits assumed) above
Integrin alpha-V/beta-3, sequence (P06756 31-889 limits assumed): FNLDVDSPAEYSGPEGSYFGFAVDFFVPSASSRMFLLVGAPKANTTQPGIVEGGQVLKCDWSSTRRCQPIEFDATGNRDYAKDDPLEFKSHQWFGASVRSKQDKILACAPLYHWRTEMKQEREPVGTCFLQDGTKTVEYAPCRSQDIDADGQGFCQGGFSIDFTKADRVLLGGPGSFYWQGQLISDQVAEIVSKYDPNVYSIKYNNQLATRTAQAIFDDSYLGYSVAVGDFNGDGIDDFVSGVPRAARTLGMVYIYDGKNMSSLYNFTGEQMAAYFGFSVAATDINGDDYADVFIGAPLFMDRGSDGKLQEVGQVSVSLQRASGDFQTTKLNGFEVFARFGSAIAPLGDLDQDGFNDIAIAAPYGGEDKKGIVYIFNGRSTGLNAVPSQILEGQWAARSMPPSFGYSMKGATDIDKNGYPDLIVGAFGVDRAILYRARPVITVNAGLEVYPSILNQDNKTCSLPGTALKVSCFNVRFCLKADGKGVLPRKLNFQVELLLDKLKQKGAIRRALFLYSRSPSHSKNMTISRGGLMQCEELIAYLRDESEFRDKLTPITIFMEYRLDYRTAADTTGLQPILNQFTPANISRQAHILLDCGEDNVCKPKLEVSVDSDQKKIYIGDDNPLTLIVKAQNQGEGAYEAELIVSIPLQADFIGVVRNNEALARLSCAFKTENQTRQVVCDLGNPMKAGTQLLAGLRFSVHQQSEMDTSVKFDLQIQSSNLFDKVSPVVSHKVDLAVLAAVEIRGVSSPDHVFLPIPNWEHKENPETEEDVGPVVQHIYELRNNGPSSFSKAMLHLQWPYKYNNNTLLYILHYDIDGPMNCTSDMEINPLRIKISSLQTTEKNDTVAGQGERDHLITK
Integrin alpha-V/beta-3, sequence (P06756 891-1048 limits assumed): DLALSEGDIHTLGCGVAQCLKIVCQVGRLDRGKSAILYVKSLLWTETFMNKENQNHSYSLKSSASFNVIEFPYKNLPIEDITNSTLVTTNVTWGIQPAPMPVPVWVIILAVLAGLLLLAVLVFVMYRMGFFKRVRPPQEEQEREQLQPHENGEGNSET

IC50 [1]: 210 nM
IC50 [2]: 1700 nM
Compound: NCCCC[C@H](NC(=O)[C@@H]1CCCN1C(=O)[C@H](CO)NC(=O)[C@H](CC(=O)O)NC(=O)CNC(=O)[C@H](CCCN=C(N)N)NC(=O)CN)C(=O)O
